Measurements reported in patent publication US8293764B2, “Compositions and methods for disruption of BRCA2-Rad51 interaction” (The Regents of the University of California, priority 2004, dated 2012).
Entries after “also recorded” stand apart in the source; their conditions may differ.

Experiments:
Type in all cases: cell-based
MCF-7 cells [1] = test: Western blot of protein levels; settings: 20 mM IBR2, time dependent
From the text: To examine the impact of IBR2 on Rad51 protein expression, IBR2 treated MCF-7 cells was examined by straight western blot probed with a panel of antibodies against BRCA2, Rad51, Rad50, p84 and Rb. […] Consistent with our FACS analysis (FIG. 4A), the hypo-phosphorylated form of Rb, a marker for G1 phase, was the major form observed in the later time points, further confirming that IBR2 arrests cells at G1 phase (FIG. 4A). It has been reported that BRCA2 level is cell cycle dependent, which expresses low in G1 phase and peaks at G1/S boundary. Therefore the decreased level of BRCA2 in IBR2 treated cells may be due to G1 phase arrest. Different from BRCA2 protein, Rad51 protein is expressed constant throughout the cell cycle in MCF-7 cells (data not shown). Therefore, loss of Rad51 protein may be the direct effect of IBR2 treatment instead of the consequence of G1 arrest. To test whether IBR2 decreases Rad51 levels by destabilization, the inventors performed a stability assay by adding cyclohexamide (CHX) to inhibit de novo protein synthesis. […] Therefore, the inventors contemplate that IBR2 treated MCF-7 cells were arrested at G1, blocked at M phase entry, and died at S/G2 phase.
Western blot analysis: Cells were treated with 20 mM IBR2 or 50 μg/ml cycloheximide (CHX) or 1 μM MG132 and harvested at different time points for western blot analysis. Cells resuspended in Lysis 250 buffer were subjected to three freeze/thaw cycles (liquid nitrogen/37° C.) and then centrifuged at 14,000 rpm for 2 minutes at room temperature. After measuring protein concentration, equal amount of total cellular proteins were subjected to SDS-PAGE and immunoblot analyses were performed as described previously (Chen et al., 1999). Antibodies used were: Rad51 (rabbit 5952); BRCA2 (rabbit PC146, Oncogene); Rb (mAb 11D7); Rad50 (mAb 13B3) and p84 (mAb 5E10). The intensity of bands was quantified by densitometry using Labworks 4.5 software. The relative value of the band intensity was calculated with respect to that of untreated sample after normalization with the p84 signal.

[2] = tested on: g-H2AX foci in MCF-7 cells; test: IR-induced g-H2AX foci formation (immunostaining); settings: 20 μM IBR2, 20 Gy
Description: Since interaction between BRCA2 and Rad51 appears to be crucial for the formation of IR-induced Rad51 foci, it was contemplated that IBR2 may mimic BRC repeats to disrupt the BRCA2-Rad51 interaction and to thereby diminish the IR-induced Rad51 foci formation. To test this possibility, the number of the MCF-7 cells that formed IR-induced Rad51 foci was measured after IBR2 treatment. […] To test whether this effect applies to other molecules involved in DSB repair, the inventors then examined the IR-induced foci formation of g-H2AX, which is histone H2AX phosphorylated at serine 139 by ATM for the recruitment of NBS1, 53BP and BRCA1, but not Rad51.
Immunostaining Rad51 and g-H2AX foci: MCF-7 cells were treated with 20 μM IBR2 for 7 or 19 hours and then g-irradiated at 20 Gy. Cells were incubated for an additional 5 hours with 20 μM IBR2, then fixed with 4% paraformaldehyde in PBS containing 0.5% Triton X-100. The fixed cells were incubated with a-Rad51 antibody (mAb 1F5) or a-g-H2AX antibody (Upstate). Rad51 and g-H2AX foci positive cells were subsequently counted as described (Chen et al., 1999).

MCF-7 cells [3] = test: S phase entry (BrdU) after nocodazole synchronization; settings: cells synchronized at M phase by nocodazole, re-plated
Description: To test whether IBR2 treated cells are arrested at G1 and thus fail to enter S phase, MCF-7 cells were synchronized at M phase by nocodazole treatment and then re-plated to allow the entry to G1 phase. At different time points, cells were pulse labeled with BrdU to monitor S phase entry.
Cell culture, cell synchronization, BrdU labeling and determination of mitotic index: Breast cancer cell lines and MEF cell lines were cultured in high-glucose Dulbecco modified Eagle medium containing 10% fetal bovine serum. MCF-10A cells were cultured as described previously (Debnath et al., 2003). Cell synchronization at M phase was achieved by treatment with 0.1 μg/ml nocodazole for 8 hours. Cell synchronization at G1/S boundary was achieved by treatment with 1 mM hydroxyurea for 17 hours, 9 hours of release and again with 1 mM hydroxyurea for 14 hours. For BrdU labeling, cells were incubated with BrdU for 30 minutes and fixed for BrdU immunostaining using a BrdU labeling kit (Amersham Biosciences). For determination of mitotic index, cells were fixed in 4% formaldehyde in PBS containing 0.1 μg/ml DAPI for 30 minutes at room temperature and examined by fluorescence microscopy. 500-1000 nuclei per sample were counted to determine the number of M phase cells which only includes prometaphase, metaphase, anaphase and telophase.

Rad51 in MCF-7 cells = test: Rad51 stability assay with cyclohexamide; settings: with cyclohexamide; control cells 5.5 hours
From the text: To examine the impact of IBR2 on Rad51 protein expression, IBR2 treated MCF-7 cells was examined by straight western blot probed with a panel of antibodies against BRCA2, Rad51, Rad50, p84 and Rb. […] Consistent with our FACS analysis (FIG. 4A), the hypo-phosphorylated form of Rb, a marker for G1 phase, was the major form observed in the later time points, further confirming that IBR2 arrests cells at G1 phase (FIG. 4A). It has been reported that BRCA2 level is cell cycle dependent, which expresses low in G1 phase and peaks at G1/S boundary. Therefore the decreased level of BRCA2 in IBR2 treated cells may be due to G1 phase arrest. Different from BRCA2 protein, Rad51 protein is expressed constant throughout the cell cycle in MCF-7 cells (data not shown). Therefore, loss of Rad51 protein may be the direct effect of IBR2 treatment instead of the consequence of G1 arrest. […]
Western blot analysis: Cells were treated with […] or 50 μg/ml cycloheximide (CHX) or 1 μM MG132 and harvested at different time points for western blot analysis. […] The intensity of bands was quantified by densitometry using Labworks 4.5 software. The relative value of the band intensity was calculated with respect to that of untreated sample after normalization with the p84 signal.

[4] = tested on: IR-induced Rad51 foci in MCF-7 breast cancer cells; test: IR-induced Rad51 foci formation (immunostaining); settings: MCF-7 cells
Description: These compounds were then tested for their effects on IR-induced Rad51 foci formation in MCF-7 breast cancer cells.

In the case of O=S(=O)(Cc1ccccc1)N1C=Cc2ccccc2C1c1c[nH]c2ccccc12 (centres unmarked) [IBR2, 2-(benzylsulfonyl)-1-(1H-indol-3-yl)-1,2-dihydroisoquinoline], the BRCA2 protein level (MCF-7 cells [1]) is reported as “decreased dramatically”, the Rad50 protein level (MCF-7 cells [1]) is reported as “remained constant” and the Rad51 protein level (MCF-7 cells [1]) is reported as “decreased dramatically”. For the same compound, the p84 protein level (MCF-7 cells [1]) was “remained constant”, the “IR-induced g-H2AX foci formation” value [2] was “no effect on g-H2AX foci formation” and the “S phase entry (BrdU positive cells)” value (MCF-7 cells [3]) was “completely arrested at G1 and failed to enter S phase”. For the same compound, the “half-life of Rad51” value (Rad51 in MCF-7 cells) was 1.5 h and the “IR-induced Rad51 foci formation” value [4] was “dramatically reduced Rad51 foci formation; also recorded: significantly reduced IR-induced Rad51 foci formation”.
